Here are results for 1 molecule from patent US5527940A, “Methanediphosphonate derivative, its manufacturing process and its pharmaceutical applications” (Toray Industries, Inc., priority 1991, dated 1996).

Assay [1] relates to IL-1 stimulated release of proteoglycan from cartilage cells. Nature of the assay: Proteoglycan release from IL-1 stimulated rabbit knee joint cartilage cells (35S label). It is filed as cell-based, New Zealand White rabbits. The conditions noted are these: 100 μM compound, IL-1β 30 units/ml, 24 hours. As to the method:
When cartilage from a rabbit knee joint is isolated and cultured followed by IL-1 stimulation, proteoglycan of glycoprotein, the major component of cartilage, is released. The IL-1 inhibitory action of compounds of the present invention was measured as described below using this action as an index.
Exsanguination was performed on 3 week old, male New Zealand White rabbits having body weights of 250-300 g under diethyl ether anesthesia, after which the knee joints were removed. The cartilage portions of the knee joints were removed with a scalpel and immersed in a CMF solution comprising 0.14M sodium chloride, 4 mM potassium chloride, 0.4 mM sodium dihydrogen phosphate, 12 mM sodium bicarbonate, 0.2 mM potassium dihydrogen phosphate and 11 mM glucose. This cartilage was then placed in 0.1% EDTA and incubated for 20 minutes at 37° C. […]
The cell layer was dissolved by adding 200 μg of pronase E and treating for 24 hours at 37° C. […] The precipitated proteoglycan was collected in a glass filter, added to a liquid scintillator and counted with a liquid scintillation counter. […]
Each of the resulting counts were expressed as a percentage of the count obtained from the initially added inorganic sulfuric acid. […]

Assay [2] concerns IL-1 production by J774-1 mouse macrophage cells. Nature of the assay: Action on IL-1 Production by Strain J774-1 Mouse Macrophage Cells (LPS stimulated). It is filed as cell-based. The conditions noted are these: 100 μM compound, LPS 1 μg/ml, 24 hours, read-out: IL-1 Production Inhibition Rate with respect to Control Group. On the procedure: It is also known that these cells produce IL-1 when stimulated with LPS. The inhibitory action on IL-1 production of compounds of the present invention was measured according to the following procedure using this cell line.
The J774-1 cells were cultured in RPMI-1640 medium containing 10% fetal bovine serum and 50 μM 2-mercaptoethanol followed by adjusting the number of cells to 2×10^5 cells/ml. 1 ml aliquots of this cell suspension were then placed in the wells of a 24 well plate and cultured for 30 minutes. Following culturing, LPS was added to a final concentration of 1 μg/ml. At the same time, compounds obtained in Examples were dissolved in sterilized distilled water and added at a concentration of 100 μM. […]
The samples obtained above were serially diluted by a factor of 2 in a 96 well multiplate at a capacity of 50 μl. […] The thymus cells were then cultured for 72 hours and IL-1 activity was determined from the growth rate of the cells. […] Using the absorbance of the pigment produced by this reduction at 570 nm as the index, the dilution factor of the sample when growth of thymus cells is induced by 50% was calculated in terms of the number of units of that sample by taking the case of induction of maximum growth of T cells by human gene recombinant IL-1 to be 100% growth, and growth in the case of not adding IL-1 to be 0%. […]

In the case of `CSc1ccc(SC(P(=O)(O)O)P(=O)(O)O)cc1` [Example 2, (4-methylthiophenyl)thiomethanediphosphonic acid], the “Proteoglycan count, Cell Layer (percentage of the count from initially added inorganic sulfuric acid)” value in assay [1] (cell layer) turned out to be 0.28 ± 0.019%. Further, the “Proteoglycan count, Cell Supernatant (percentage of the count from initially added inorganic sulfuric acid)” value in assay [1] (cell supernatant) is 0.74 ± 0.061%. The inhibition at 100 µM in assay [2] amounted to 51.4%.
